Measured values: patent US20200101103A1, “REINFORCEMENT OF MUCUS BARRIER PROPERTIES” (CIRQLE BIOMEDICAL CONTRACEPTION IVS, priority 2017, published 2020)

test system: purified porcine gastric mucin; assay: Effect of muco-adhesive amino acid polymers on mucin gels (light microscopy); settings: 5 mg/mL polymer, 4 μl mucin drop, 3 min to 50 min of contact
Description: (§1) FIG. 7 illustrates the effect of low or high molecular weight muco-adhesive polymers on mucin gels. A 4 μl drop of purified porcine gastric mucin was placed in a solution of poly-L-arginine (PLA, DP 11 corresponding to 1.9 kDa, 5 mg/mL), poly-L-lysine (PLL, DP 11 corresponding to 1.6 kDa, 5 mg/mL), or poly-L-lysine (PLL, DP 400 corresponding to 66 kDa, 5 mg/mL). The drop of mucin was observed under the microscope (10x objective). The three images are taken after 3 min, 12 min 30, and 50 min of contact.
as §1, with “Effect” for “FIG. 7 illustrates the effect”, “(PLA,” for “(PLA, DP 11 corresponding to”, “(PLL,” for “(PLL, DP 11 corresponding to”, “(PLL,” for “(PLL, DP 400 corresponding to”, “(10×” for “(10x”

Substance | effect on mucin gel drop
poly-L-arginine [PLA, 1.9 kDa] | clearly crosslinks the mucin in depth
poly-L-lysine [PLL, 1.6 kDa] | clearly crosslinks the mucin in depth
poly-L-lysine [PLL, 66 kDa, reference compound] | changes the structure of the mucins drop and compacts it significantly
